# Measurements reported in patent publication US9023857B2, “Substituted 6-(2-aminobenzylamino)purine derivatives, their use as medicaments and preparations containing these compounds” (Univerzita Palackeho V Olomouci, priority 2009, dated 2015).
# Where two headings read alike, the source gives them in different places.
# How the values were obtained:
# [1] = tested on: promyelocytic leukemia HL 60
# [2] = tested on: human malignant melanoma G 361
# CDK9/cyclin T = CDK9/cyclin T (Homo sapiens, UniProt P50750); assay: CDK inhibition assay, CDK9/cyclin T
# [3] = tested on: human T-lymphoblastoid leukaemic cell line CEM
# [4] = tested on: cervical carcinoma cells HELA
# [5] = tested on: human erythroleukaemia K562
# breast carcinoma MCF7 [6] = tested on: breast carcinoma MCF7
# [7] = tested on: normal human fibroblasts BJ
# [8] = tested on: human osteogenic sarcoma HOS
# HSV-1-deltaTK = assay: Plaque number reduction assay, HSV-1-deltaTK on HFFF; type: cell-based; details: HSV-1 thymidine kinase (TK) deletion mutant on HFFF
# CDK2/cyclin E = CDK2/cyclin E (Homo sapiens, UniProt P24941); assay: CDK inhibition assay, CDK2/cyclin E
# CDK1/cyclin B = CDK1/cyclin B (Homo sapiens, UniProt P06493); assay: CDK inhibition assay, CDK1/cyclin B
# VV = type: cell-based, Vaccinia virus strain WR; details: Vaccinia virus on HFFF
# [9] = tested on: p53-responsive reporter pRGCΔfoslacZ in human melanoma cell line Arn8; assay: p53-dependent transcriptional activity, β-galactosidase reporter in Arn8 cells; details: concentration inducing maximum of β-galactosidase activity (p53-responsive reporter)
# [10] = tested on: human osteogenic sarcoma HOS; assay: In vitro cytotoxic activity (Calcein AM, 72 hours), HOS; details: read-out: Cytotoxicity IC50 HOS
# [11] = tested on: human malignant melanoma G 361; assay: In vitro cytotoxic activity (Calcein AM, 72 hours), G 361; details: G-361, 72 h, read-out: Cytotoxicity IC50 G361
# [12] = In vitro cytotoxic activity (Calcein AM, 72 hours), BJ; details: human, BJ normal fibroblasts
# [13] = tested on: human T-lymphoblastoid leukaemic cell line CEM; assay: In vitro cytotoxic activity (Calcein AM, 72 hours), CEM; details: read-out: Cytotoxicity IC50 CEM
# breast carcinoma MCF7 [14] = assay: In vitro cytotoxic activity (Calcein AM, 72 hours), MCF7; details: Homo sapiens, MCF7, 72 h, read-out: Cytotoxicity IC50 MCF7
# [15] = tested on: human erythroleukaemia K562; assay: In vitro cytotoxic activity (Calcein AM, 72 hours), K562; details: K562, 72 h, read-out: Cytotoxicity IC50 K-562
# [16] = tested on: cervical carcinoma cells HELA; assay: In vitro cytotoxic activity (Calcein AM, 72 hours), HELA; details: Homo sapiens, read-out: Cytotoxicity IC50 HeLa
# [17] = tested on: promyelocytic leukemia HL 60; assay: In vitro cytotoxic activity (Calcein AM, 72 hours), HL 60; details: Homo sapiens, HL-60, 72 h, read-out: Cytotoxicity IC50 HL60
# [18] = read-out: IC50 CDK9, CDK9/cyclin T, 15 μM ATP, histone substrate
# [19] = read-out: IC50 CDK2, CDK2/cyclin E, 15 μM ATP, histone substrate
# [20] = read-out: IC50 CDK1, CDK1/cyclin B, 15 μM ATP, histone substrate
# Sequence of CDK9/cyclin T (P50750 whole entry, species assumed): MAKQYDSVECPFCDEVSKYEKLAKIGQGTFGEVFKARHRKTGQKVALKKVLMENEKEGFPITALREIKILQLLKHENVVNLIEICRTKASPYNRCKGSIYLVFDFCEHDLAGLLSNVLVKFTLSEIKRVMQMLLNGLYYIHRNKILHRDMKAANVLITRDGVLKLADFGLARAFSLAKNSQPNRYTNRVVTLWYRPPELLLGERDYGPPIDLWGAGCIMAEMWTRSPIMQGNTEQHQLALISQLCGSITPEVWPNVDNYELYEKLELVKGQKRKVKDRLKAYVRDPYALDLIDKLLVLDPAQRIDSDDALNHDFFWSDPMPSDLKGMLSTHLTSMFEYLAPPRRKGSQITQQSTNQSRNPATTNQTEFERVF
# Sequence of CDK9/cyclin T (O60563 whole entry partner, species assumed): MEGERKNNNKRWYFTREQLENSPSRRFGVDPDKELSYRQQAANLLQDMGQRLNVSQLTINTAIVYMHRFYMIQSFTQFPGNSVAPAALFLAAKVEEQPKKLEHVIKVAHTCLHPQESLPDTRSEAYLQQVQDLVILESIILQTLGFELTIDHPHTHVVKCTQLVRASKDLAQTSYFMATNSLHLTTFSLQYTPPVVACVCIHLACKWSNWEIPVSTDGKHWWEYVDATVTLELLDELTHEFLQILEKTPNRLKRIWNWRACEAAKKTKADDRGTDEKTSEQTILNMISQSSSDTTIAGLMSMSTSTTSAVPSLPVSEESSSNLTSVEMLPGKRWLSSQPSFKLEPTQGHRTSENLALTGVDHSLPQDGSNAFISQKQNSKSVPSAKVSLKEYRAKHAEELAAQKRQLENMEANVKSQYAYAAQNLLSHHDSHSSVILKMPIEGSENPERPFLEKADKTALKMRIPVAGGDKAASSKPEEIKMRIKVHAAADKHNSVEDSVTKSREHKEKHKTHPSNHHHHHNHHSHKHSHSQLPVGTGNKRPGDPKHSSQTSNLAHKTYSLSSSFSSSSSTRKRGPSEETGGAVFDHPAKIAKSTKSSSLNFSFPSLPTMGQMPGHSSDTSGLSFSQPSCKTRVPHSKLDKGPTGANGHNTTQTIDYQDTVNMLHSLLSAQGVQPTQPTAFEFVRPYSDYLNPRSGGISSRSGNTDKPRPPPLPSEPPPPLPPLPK
# Sequence of CDK1/cyclin B (P06493 whole entry, species assumed): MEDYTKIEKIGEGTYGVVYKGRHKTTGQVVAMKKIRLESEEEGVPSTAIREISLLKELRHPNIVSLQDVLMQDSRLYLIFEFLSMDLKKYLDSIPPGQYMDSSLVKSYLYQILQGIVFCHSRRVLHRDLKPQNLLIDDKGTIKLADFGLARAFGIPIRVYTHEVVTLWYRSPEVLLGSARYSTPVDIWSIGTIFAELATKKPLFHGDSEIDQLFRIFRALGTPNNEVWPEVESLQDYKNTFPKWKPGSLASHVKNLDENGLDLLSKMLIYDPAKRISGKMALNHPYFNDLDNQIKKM
# Sequence of CDK1/cyclin B (P14635 whole entry partner, species assumed): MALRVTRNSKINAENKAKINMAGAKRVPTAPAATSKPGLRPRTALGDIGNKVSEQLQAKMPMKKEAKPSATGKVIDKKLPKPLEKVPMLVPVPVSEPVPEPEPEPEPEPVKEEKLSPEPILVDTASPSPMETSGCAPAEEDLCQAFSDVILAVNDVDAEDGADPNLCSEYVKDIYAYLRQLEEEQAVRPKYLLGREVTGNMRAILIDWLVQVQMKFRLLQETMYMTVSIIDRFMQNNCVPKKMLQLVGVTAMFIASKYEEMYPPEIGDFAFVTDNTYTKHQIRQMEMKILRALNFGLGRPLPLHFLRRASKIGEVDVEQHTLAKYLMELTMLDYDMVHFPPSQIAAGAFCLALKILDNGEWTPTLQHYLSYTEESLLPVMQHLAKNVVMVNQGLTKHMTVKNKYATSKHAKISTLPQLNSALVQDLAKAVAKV
SMILES,IC50 [1],IC50 [2],IC50 (CDK9/cyclin T; [18]),IC50 [3],IC50 [4],IC50 [5],IC50 (breast carcinoma MCF7 [6]),IC50 [7],IC50 [8],IC50 (CDK2/cyclin E; [19]),Max. β-Gal. Activtity Conc. [9],IC50 [10],IC50 [11],IC50 at 72 h [12],IC50 [13],IC50 (CDK9/cyclin T),IC50 (CDK2/cyclin E),IC50 (breast carcinoma MCF7 [14]),IC50 [15],IC50 [16],further results
CC(C)C(CO)Nc1nc(NCc2ccccc2)c2ncn(C(C)C)c2n1 (centres unmarked) [Compound A2161],18 µM,11.5 µM,0.5 µM,4.3 µM,6.5 µM,15.4 µM,5.9 µM,> 167 µM,22 µM,,,,,,,,,,,,
"Nc1nc2c(ncn2COCCO)c(=O)[nH]1 [Acyclovir, 9-[(2-Hydroxyethoxy)methyl]guanine, reference compound]",,,,,,,,,,,,,,,,,,,,,inhibition of virus replication (in words) (HSV-1-deltaTK): resistant
CC(O)CNc1nc(NCc2ccccc2)c2ncn(C(C)C)c2n1 (centres unmarked) [Compound A216],59 µM,44 µM,1.3 µM,27 µM,36 µM,80 µM,30.4 µM,> 167 µM,58 µM,1.5 µM,,,,,,,,,,,
Cn1cnc2c(NCc3ccccc3)nc(NC3CCC(N)CC3)nc21 (centres unmarked) [Compound A1141],75 µM,74 µM,3.3 µM,43 µM,48 µM,91 µM,55 µM,> 167 µM,86 µM,3.4 µM,,,,,,,,,,,IC50 (CDK1/cyclin B; [20]): 3.1 µM
"O=c1[nH]c(=O)n([C@H]2C[C@H](O)[C@@H](CO)O2)cc1I [Iododeoxyuridine, 1-(2-Deoxy-β-D-ribofuranosyl)-5-iodouracil]",,,,,,,,,,,,,,,,,,,,,inhibition of virus replication (in words) (VV): inhibited equally well
CC(C)n1cnc2c(NCc3ccccc3N)nc(NC3CCCCC3N)nc21 (centres unmarked) [Compound 101],24 µM,14 µM,0.02 µM,7 µM,15 µM,27 µM,15.3 µM,> 167 µM,25 µM,0.4 µM,22 µM,,,,,,,,,,IC50 (CDK1/cyclin B; [20]): 0.6 µM
CCCn1cnc2c(NCc3ccccc3N)nc(NC(CC)CO)nc21 (centres unmarked) [Compound 187],,,,,,,,,,,3 µM,12 µM,9 µM,> 167 µM,7.6 µM,0.0007 µM,0.1 µM,4.3 µM,16 µM,4.5 µM,IC50 [17]: 8.3 µM; IC50 (CDK1/cyclin B): 0.2 µM
CC(C)C(CO)Nc1nc(NCc2ccccc2N)c2ncn(C)c2n1 (centres unmarked) [Compound 7],,,,,,,,,,,25 µM,0.8 µM,1.2 µM,> 167 µM,0.9 µM,0.001 µM,0.01 µM,1.5 µM,5 µM,1 µM,IC50 [17]: 2.4 µM; IC50 (CDK1/cyclin B): 0.04 µM
CCC(CO)Nc1nc(NCc2cc(Cl)ccc2N)c2ncn(Cc3ccccc3)c2n1 (centres unmarked) [Compound 247],,,,,,,,,,,20 µM,22 µM,21 µM,> 167 µM,15 µM,0.07 µM,0.6 µM,14 µM,41 µM,19 µM,IC50 [17]: 34 µM; IC50 (CDK1/cyclin B): 0.8 µM
CCC(CO)Nc1nc(NCc2cc(Cl)ccc2N)c2ncn(C(C)C)c2n1 (centres unmarked) [Compound 118],,,,,,,,,,,18 µM,7.6 µM,6 µM,> 167 µM,3.2 µM,0.002 µM,0.01 µM,1.8 µM,8.4 µM,1.6 µM,IC50 [17]: 5.4 µM; IC50 (CDK1/cyclin B): 0.08 µM
CC(C)n1cnc2c(NCc3cc(N)ccc3N)nc(NC3CCC(O)CC3)nc21 (centres unmarked) [Compound 161],26 µM,14 µM,0.08 µM,9 µM,12 µM,18 µM,7 µM,> 167 µM,26 µM,0.6 µM,20 µM,,,,,,,,,,IC50 (CDK1/cyclin B; [20]): 0.9 µM
